Values of other authors as cited in US20050249806A1, “Combination of proton pump inhibitor, buffering agent, and nonsteroidal anti-inflammatory drug” (Santarus, Inc., priority 2004, published 2005).

Conditions: not given

Row | Compound | water solubility
1 | COc1ccc2[nH]c([S+]([O-])Cc3ncc(C)c(OC)c3C)nc2c1 (stereo not shown) [omeprazole] | poor water solubility

Conditions: pharmacokinetic half-life

Row | Compound | half-life
2 | O=C(O)CCc1nc(-c2ccccc2)c(-c2ccccc2)o1 [oxaprozin] | 42 to 50 h
3 | CC(C(=O)O)c1ccc(-c2ccccc2)c(F)c1 (stereo not shown) [flurbiprofen] | about 6 hours
4 | O=C(c1ccccc1)c1ccc2n1CCC2C(=O)O (stereo not shown) [ketorolac] | 8 to 9 h
5 | Cc1cccc(Nc2ccccc2C(=O)O)c1C [mefenamic acid] | up to 4 hours
6 | COc1ccc2cc(CCC(C)=O)ccc2c1 [nabumetone] | 22 to 30 h
7 | CCc1cccc2c3c([nH]c12)C(CC)(CC(=O)O)OCC3 (stereo not shown) [etodolac] | about 7 hours
